Tests used:
[1] = system: antibodies in sera from SARS patients (sera 1a, 1b, 2, 6, 37, 62, London, SARS-yellow, SARS-green); format: binding, human; set-up: Binding of serum 6 to linear peptides of protein X1 of SARS-CoV Urbani / Binding of serum 37 to linear peptides of protein X1 of SARS-CoV Urbani / Binding of serum 6 to looped/cyclic peptide (PEPSCAN-ELISA) / Binding of serum 37 to looped/cyclic peptide (PEPSCAN-ELISA) / Binding of serum 37 to looped/cyclic peptides of protein X1 of SARS-CoV Urbani / Binding of serum 6 to linear peptides of protein X2 / Binding of serum 37 to linear peptides of protein X2 / Binding of serum 37 to looped/cyclic peptides of protein X2 of SARS-CoV Urbani / Binding of serum 6 to linear peptides of protein M of SARS-CoV Urbani / Binding of serum 37 to linear peptides of protein M of SARS-CoV Urbani / Binding of serum 6 to looped/cyclic peptides of protein M of SARS-CoV Urbani / Binding of serum 37 to looped/cyclic peptides of protein M of SARS-CoV Urbani / Binding of serum 6 to linear peptides of protein X3 of SARS-CoV Urbani / Binding of serum 37 to linear peptides of protein X3 of SARS-CoV Urbani / Binding of serum 37 to looped/cyclic peptides of protein X3 of SARS-CoV Urbani / Binding of serum 6 to linear peptides of protein X4 of SARS-CoV Urbani / Binding of serum 37 to linear peptides of protein X4 of SARS-CoV Urbani / Binding of serum 37 to looped/cyclic peptides of protein X4 of SARS-CoV Urbani / Binding of serum 6 to linear peptides of protein X5 of SARS-CoV Urbani / Binding of serum 37 to linear peptides of protein X5 of SARS-CoV Urbani / Binding of serum 37 to looped/cyclic peptides of protein X5 of SARS-CoV Urbani / Binding of serum 6 to linear peptides of protein N of SARS-CoV Urbani / Binding of serum 37 to linear peptides of protein N of SARS-CoV Urbani / Binding of serum 6 to linear peptide (PEPSCAN-ELISA) / Binding of serum 1a to looped/cyclic peptides of protein N of SARS-CoV Urbani / Binding of serum 1b to looped/cyclic peptides of protein N of SARS-CoV Urbani / Binding of serum 2 to looped/cyclic peptides of protein N of SARS-CoV Urbani / Binding of serum 6 to looped/cyclic peptides of protein N of SARS-CoV Urbani / Binding of serum 37 to looped/cyclic peptides of protein N of SARS-CoV Urbani / Binding of serum 62 to looped/cyclic peptides of protein N of SARS-CoV Urbani / Binding of serum London to looped/cyclic peptides of protein N of SARS-CoV Urbani / Binding of serum SARS-green to looped/cyclic peptides of protein N of SARS-CoV Urbani: unit not given here
[2] = system: control sera (pooled serum of ten healthy LUMC hospital workers; commercial negative donor pooled serum from the Dutch bloodbank); format: binding, human; set-up: Binding of Control serum LUMC to linear peptides / Binding of Control serum Blood-bank to linear peptides / Binding of Control serum LUMC to looped peptides / Binding of Control Serum Blood-Bank to Looped peptides / Binding of Control serum LUMC to linear peptides of the protein M of SARS-CoV Urbani / Binding of Control serum Blood-bank to linear peptides of the protein M of SARS-CoV Urbani / Binding of Control serum LUMC to looped peptides of the protein M of SARS-CoV Urbani / Binding of Control Serum Blood-Bank to Looped peptides of the protein M of SARS-CoV Urbani: unit not given here
[3] = system: rabbit serum obtained by immunizing a rabbit with the SARS-CoV strain Frankfurt 1; format: binding; set-up: Binding of a rabbit serum to linear peptides / Binding of a rabbit serum to looped peptides / Rabbit serum linear peptides / Rabbit serum looped peptides / Binding of a rabbit serum to linear peptides of protein N of SARS-CoV Urbani (Rabbit serum linear peptides) / Binding of a rabbit serum to looped/cyclic peptides of protein N of SARS-CoV Urbani (Rabbit serum looped peptides): unit not given here

Sequence: CWLCWKCKSKNPLLY
- Binding of serum 1a to looped/cyclic peptide (PEPSCAN-ELISA) [1]: 0.7
- Binding of serum 1b to looped/cyclic peptide (PEPSCAN-ELISA) [1]: 0.4
- Binding of serum 2 to looped/cyclic peptide (PEPSCAN-ELISA) [1]: 0.5
- Binding of serum 6 to looped/cyclic peptide (PEPSCAN-ELISA) [1]: 0.7
- Binding of serum 37 to looped/cyclic peptide (PEPSCAN-ELISA) [1]: 0.7
- Binding of serum 62 to looped/cyclic peptide (PEPSCAN-ELISA) [1]: 0.7
- Binding of serum London to looped/cyclic peptide (PEPSCAN-ELISA) [1]: 0.3
- Binding of serum SARS-green to looped/cyclic peptide (PEPSCAN-ELISA) [1]: 0.3
- Binding of serum SARS-yellow to looped/cyclic peptide (PEPSCAN-ELISA) [1]: 0.5
- Recognition of the peptide by sera of SARS-CoV infected individuals, and form (linear, looped/cyclic) in which it is recognized [1]: recognized in linear form
- Binding of Control Serum Blood-Bank to Looped peptides [2]: 0.6
- Binding of Control serum Blood-bank to linear peptides [2]: 0.9
- Binding of Control serum LUMC to linear peptides [2]: 0.7
- Binding of Control serum LUMC to looped peptides [2]: 0.7
- Binding of a rabbit serum to linear peptides [3]: 0.2
- Binding of a rabbit serum to looped peptides [3]: 0.7

Sequence: DGTRHTYQLRARSVS
- Binding of serum 1a to linear peptides of protein X4 of SARS-CoV Urbani [1]: 0.6
- Binding of serum 1a to looped/cyclic peptides of protein X4 of SARS-CoV Urbani [1]: 0.8
- Binding of serum 1b to linear peptides of protein X4 of SARS-CoV Urbani [1]: 0.5
- Binding of serum 1b to looped/cyclic peptides of protein X4 of SARS-CoV Urbani [1]: 0.5
- Binding of serum 2 to linear peptides of protein X4 of SARS-CoV Urbani [1]: 0.8
- Binding of serum 2 to looped/cyclic peptides of protein X4 of SARS-CoV Urbani [1]: 0.8
- Binding of serum 6 to linear peptides of protein X4 of SARS-CoV Urbani [1]: 0.8
- Binding of serum 6 to looped/cyclic peptides of protein X4 of SARS-CoV Urbani [1]: 0.8
- Binding of serum 37 to linear peptides of protein X4 of SARS-CoV Urbani [1]: 0.8
- Binding of serum 37 to looped/cyclic peptides of protein X4 of SARS-CoV Urbani [1]: 0.7
- Binding of serum 62 to linear peptides of protein X4 of SARS-CoV Urbani [1]: 0.7
- Binding of serum 62 to looped/cyclic peptides of protein X4 of SARS-CoV Urbani [1]: 0.7
- Binding of serum London to linear peptides of protein X4 of SARS-CoV Urbani [1]: 0.7
- Binding of serum London to looped/cyclic peptides of protein X4 of SARS-CoV Urbani [1]: 0.4
- Binding of serum SARS-green to linear peptides of protein X4 of SARS-CoV Urbani [1]: 0.4
- Binding of serum SARS-green to looped/cyclic peptides of protein X4 of SARS-CoV Urbani [1]: 0.6
- Binding of serum SARS-yellow to linear peptides of protein X4 of SARS-CoV Urbani [1]: 0.5
- Binding of serum SARS-yellow to looped/cyclic peptides of protein X4 of SARS-CoV Urbani [1]: 0.7
- Binding of Control Serum Blood-Bank to Looped peptides [2]: 0.8
- Binding of Control serum Blood-bank to linear peptides [2]: 0.6
- Binding of Control serum LUMC to linear peptides [2]: 0.5
- Binding of Control serum LUMC to looped peptides [2]: 0.7
- Recognition of the peptide by the rabbit serum [3]: recognized

Sequence: DLFMRFFTLGSITAQ
- Binding of serum 1a to linear peptides of protein X1 of SARS-CoV Urbani [1]: 0.7
- Binding of serum 1a to looped/cyclic peptide (PEPSCAN-ELISA) [1]: 0.5
- Binding of serum 1b to linear peptides of protein X1 of SARS-CoV Urbani [1]: 0.5
- Binding of serum 1b to looped/cyclic peptide (PEPSCAN-ELISA) [1]: 0.3
- Binding of serum 2 to linear peptides of protein X1 of SARS-CoV Urbani [1]: 0.4
- Binding of serum 2 to looped/cyclic peptide (PEPSCAN-ELISA) [1]: 0.3
- Binding of serum 6 to linear peptides of protein X1 of SARS-CoV Urbani [1]: 0.1
- Binding of serum 6 to looped/cyclic peptide (PEPSCAN-ELISA) [1]: 0.3
- Binding of serum 37 to linear peptides of protein X1 of SARS-CoV Urbani [1]: 0.6
- Binding of serum 37 to looped/cyclic peptide (PEPSCAN-ELISA) [1]: 0.5
- Binding of serum 62 to linear peptides of protein X1 of SARS-CoV Urbani [1]: 0.5
- Binding of serum 62 to looped/cyclic peptide (PEPSCAN-ELISA) [1]: 0.5
- Binding of serum London to linear peptides of protein X1 of SARS-CoV Urbani [1]: 0.2
- Binding of serum London to looped/cyclic peptide (PEPSCAN-ELISA) [1]: 0.2
- Binding of serum SARS-green to linear peptides of protein X1 of SARS-CoV Urbani [1]: 0.2
- Binding of serum SARS-green to looped/cyclic peptide (PEPSCAN-ELISA) [1]: 0.2
- Binding of serum SARS-yellow to linear peptides of protein X1 of SARS-CoV Urbani [1]: 0.4
- Binding of serum SARS-yellow to looped/cyclic peptide (PEPSCAN-ELISA) [1]: 0.2
- Binding of Control Serum Blood-Bank to Looped peptides [2]: 0.5
- Binding of Control serum Blood-bank to linear peptides [2]: 0.6
- Binding of Control serum LUMC to linear peptides [2]: 0.6
- Binding of Control serum LUMC to looped peptides [2]: 0.5
- Binding of a rabbit serum to linear peptides [3]: 0.1
- Binding of a rabbit serum to looped peptides [3]: 0.3

Sequence: DPAGGALIARCWYLH
- Binding of serum 1a to linear peptides of protein X5 of SARS-CoV Urbani [1]: 0.7
- Binding of serum 1a to looped/cyclic peptides of protein X5 of SARS-CoV Urbani [1]: 0.8
- Binding of serum 1b to linear peptides of protein X5 of SARS-CoV Urbani [1]: 0.6
- Binding of serum 1b to looped/cyclic peptides of protein X5 of SARS-CoV Urbani [1]: 0.5
- Binding of serum 2 to linear peptides of protein X5 of SARS-CoV Urbani [1]: 0.4
- Binding of serum 2 to looped/cyclic peptides of protein X5 of SARS-CoV Urbani [1]: 0.5
- Binding of serum 6 to linear peptides of protein X5 of SARS-CoV Urbani [1]: 0.5
- Binding of serum 6 to looped/cyclic peptides of protein X5 of SARS-CoV Urbani [1]: 0.4
- Binding of serum 37 to linear peptides of protein X5 of SARS-CoV Urbani [1]: 0.8
- Binding of serum 37 to looped/cyclic peptides of protein X5 of SARS-CoV Urbani [1]: 0.7
- Binding of serum 62 to linear peptides of protein X5 of SARS-CoV Urbani [1]: 0.7
- Binding of serum 62 to looped/cyclic peptides of protein X5 of SARS-CoV Urbani [1]: 0.6
- Binding of serum London to linear peptides of protein X5 of SARS-CoV Urbani [1]: 0.6
- Binding of serum London to looped/cyclic peptides of protein X5 of SARS-CoV Urbani [1]: 0.2
- Binding of serum SARS-green to linear peptides of protein X5 of SARS-CoV Urbani [1]: 0.6
- Binding of serum SARS-green to looped/cyclic peptides of protein X5 of SARS-CoV Urbani [1]: 0.6
- Binding of serum SARS-yellow to linear peptides of protein X5 of SARS-CoV Urbani [1]: 0.2
- Binding of serum SARS-yellow to looped/cyclic peptides of protein X5 of SARS-CoV Urbani [1]: 0.3
- Binding of Control Serum Blood-Bank to Looped peptides [2]: 0.8
- Binding of Control serum Blood-bank to linear peptides [2]: 0.7
- Binding of Control serum LUMC to linear peptides [2]: 0.3
- Binding of Control serum LUMC to looped peptides [2]: 0.6
- Rabbit serum linear peptides [3]: 0.3
- Rabbit serum looped peptides [3]: 0.5

From patent publication US20070128217A1 (priority 2003, published 2007)
